Experimental data taken from patent publication US5378716A, “Pyrazol-1-yl phenoxyacetic acid compounds which have useful pharmaceutical utility” (Ono Pharmaceutical Co., Ltd., priority 1992, dated 1995).

Tests used:
[1] = target: T1, PGI2 receptor in the human blood platelet membrane fraction (Homo sapiens, UniProt P43119); assay: Inhibitory activity on binding of [^3 H]-iloprost to PGI2 receptor in the human blood platelet membrane fraction; details: 10 nM [^3 H]-iloprost, human blood platelet membrane fraction (0.3 mg protein), pH 7.4, 24° C., 30 min; read-out: IC50, inhibition of [^3 H]-iloprost binding to PGI2 receptor
T1 construct: human blood platelet membrane fraction (0.3 mg protein) was added; from tissue; host or cells: human blood platelets (membrane fraction)
Protocol: i) Inhibitory activity on binding of [^3 H]-iloprost to PGI2 receptor in the human blood platelet membrane fraction
50 mM Tris-HCl buffer (pH 7.4) containing 15 mM MgCl2, 5 mM EDTA and 10 nM [^3 H]-iloprost were used as reaction medium. To 0.2 ml of the reaction medium, human blood platelet membrane fraction (0.3 mg protein) was added with or without a test compound. The mixture was incubated at 24° C. for 30 min. After incubation, 4 ml of ice-cold 10 mM Tris-HCl buffer (pH 7.4) was added to the reaction mixture, the mixture was filtered through Whatman GF/B glass fiber filter and washed 4 times with 4 ml of ice-cold 10 mM Tri-HCl buffer (pH 7.4) to separate bound and free [^3 H]-iloprost. After washing, the filter was dried and radioactivity was counted. Non-specific binding was obtained by performing parallel binding experiments in the presence of 10 μM non-labelled iloprost. Specific binding was calculated by subtracting the non-specific binding from the total binding.
The inhibitory effect of a test compound was calculated from the following equation.
The percentage of inhibition (%)=100-(B1 /B0 ×100)
B1 :specific [^3 H]-iloprost binding in the presence of a test compound
B0 :specific [^3 H]-iloprost binding in the absence of a test compound

[2] = test system: human blood platelet aggregation; assay: Inhibitory effect on human blood platelet aggregation (ADP-induced, platelet-rich plasma); type: cell-based; details: human PRP (5×10^5 platelets/mm^3), compound added 1 minute prior to ADP (4 μm), read-out: IC50, inhibition of human blood platelet aggregation
Protocol: ii) Inhibitory effect on human blood platelet aggregation
Platelet-rich plasma (PRP) was prepared from human blood (5×10^5 platelets/mm^3) and a test compound was added to PRP 1 minute prior to the addition of ADP (4 μm). The aggregation was monitored using a platelet aggregometer (NBS HEMA TRACER 601, Niko Bioscience, Japan).

T1 sequence (P43119 whole entry): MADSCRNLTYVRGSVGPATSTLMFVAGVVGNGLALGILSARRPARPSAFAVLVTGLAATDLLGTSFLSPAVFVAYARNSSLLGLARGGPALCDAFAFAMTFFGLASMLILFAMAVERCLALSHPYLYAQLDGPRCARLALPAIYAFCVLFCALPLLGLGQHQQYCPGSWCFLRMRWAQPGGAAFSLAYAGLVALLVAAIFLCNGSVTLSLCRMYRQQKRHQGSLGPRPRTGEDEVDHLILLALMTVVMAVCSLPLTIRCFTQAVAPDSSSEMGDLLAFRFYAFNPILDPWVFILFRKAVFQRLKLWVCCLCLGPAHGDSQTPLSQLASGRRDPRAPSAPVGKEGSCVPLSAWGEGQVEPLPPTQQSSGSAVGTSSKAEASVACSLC

SMILES | IC50 [1] | IC50 [2]
CCCC(CCCc1cccc(OCC(=O)O)c1)=NOC(c1ccccc1)c1ccccc1 [Example 4, 3-(4-Diphenylmethyloxyiminoheptyl)phenoxyacetic acid] | 1600 nM | 3700 nM
O=C(O)COc1cccc(OCCn2cc(C(c3ccccc3)c3ccccc3)cn2)c1 [17(cc), 3-[2-(4-Diphenylmethylpyrazol-1-yl)ethyloxy]phenoxyacetic acid] | 260 nM | 410 nM
O=C(O)COc1cccc(CCCON=C(c2ccccc2)c2cccnc2)c1 [17(x), 3-[3-[1-Phenyl-1-(3-pyridyl)methylideneaminooxy]propyl]phenoxyacetic acid] | 5000 nM | –
O=C(O)COc1cccc(CCCC(=O)NN(c2ccccc2)c2ccccc2)c1 [8(o), 3-[3-[(N,N-Diphenylamino)aminocarbonyl]propyl]phenoxyacetic acid] | 460 nM | 970 nM
CCCC(CCCc1cccc(OCC(=O)O)c1)NOC(c1ccccc1)c1ccccc1 (stereo not drawn) [Example 6, 3-(4-Diphenylmethyloxyaminoheptyl)phenoxyacetic acid] | 3000 nM | –
O=C(O)COc1cccc(/C=C/Cn2cc(C(c3ccccc3)c3ccccc3)cn2)c1 [17(i), 3-[3-(4-Diphenylmethylpyrazol-1-yl)-1-propenyl]phenoxyacetic acid] | 220 nM | –
O=C(O)COc1cccc(CCCn2cc(C(c3ccccc3)c3ccccc3)nn2)c1 [17(c), 3-[3-(4-Diphenylmethyl-1,2,3-triazol-1-yl)propyl]phenoxyacetic acid] | 270 nM | 470 nM
O=C(O)COc1cccc(CCCc2noc(C(c3ccccc3)c3ccccc3)n2)c1 [Example 23, 3-[3-(5-diphenylmethyl-1,2,4-oxadiazol-3-yl)propyl]phenoxyacetic acid] | 1500 nM | 370 nM
O=C(O)COc1cccc(CCCn2ncc(C(c3ccccc3)c3ccccc3)n2)c1 [17(b), 3-[3-(4-Diphenylmethyl-1,2,3-triazol-2-yl)propyl]phenoxyacetic acid] | 360 nM | 240 nM
O=C(O)COc1cccc(CCCc2cc(C(c3ccccc3)c3ccccc3)on2)c1 [Example 19, 3-[3-(5-diphenylmethylisoxazol-3-yl)propyl]phenoxyacetic acid] | 120 nM | 160 nM
Cc1c(/C=C/Cn2cc(C(c3ccccc3)c3ccccc3)cn2)cccc1OCC(=O)O [17(s), 2-Methyl-3-[3-(4-diphenylmethylpyrazol-1-yl)-1-propenyl]phenoxyaceticacid] | 780 nM | 3200 nM
O=C(O)COc1cccc(CCCc2nc(C(c3ccccc3)c3ccccc3)no2)c1 [Example 21, 3-[3-(3-diphenylmethyl-1,2,4-oxadiazol-5-yl)propyl]phenoxyacetic acid] | 4400 nM | –
O=C(O)COc1cccc(CCCC(=O)N(Cc2ccccc2)Cc2ccccc2)c1 [8(l), 3-[3-(N,N-Dibenzylaminocarbonyl)propyl]phenoxyacetic acid] | 1500 nM | –
O=C(O)COc1ccccc1CCCCn1cc(C(c2ccccc2)c2cccnc2)cn1 (stereo not drawn) [17(n)] | 2000 nM | –
COC(=O)COc1cccc(CCCC(=O)OC(c2ccccc2)c2ccccc2)c1 [Example 15, Methyl 3-(3-diphenylmethyloxycarbonylpropyl)phenoxyacetate] | 4000 nM | –
O=C(O)COc1cccc(CCCC(=O)NC(c2ccccc2)c2ccccc2)c1 [8(n), 3-(3-Diphenylmethylaminocarbonylpropyl)phenoxyacetic acid] | 2000 nM | 3100 nM
O=C(O)COc1cccc(CCCCOC(c2ccccc2)c2ccccc2)c1 [Example 12, 3-(4-Diphenylmethyloxybutyl)phenoxyacetic acid] | 1300 nM | 5000 nM
O=C(O)COc1cccc(CCCC=NOC(c2ccccc2)c2ccccc2)c1 [Example 2, 3-(4-Diphenylmethyloxyiminobutyl)phenoxyacetic acid] | 4800 nM | –
O=C(O)COc1cccc(CCCn2cc(C(c3ccccc3)c3ccccc3)cn2)c1 [Example 17, 3-[3-(4-diphenylmethylpyrazol-1-yl)propyl]phenoxyacetic acid] | 150 nM | 420 nM
